Measured values reported in patent US20070082017A1, “Lipid compositions and methods of use” (priority 2004, published 2007).

System: patients with dry eye symptoms
Experiment: Clinical use of lipid composition applied to the eyelid margin for dry eye
Type: in vivo, human
Settings: Patient No. 4; 1 percent non-preserved, two weeks
Excerpt: These patients were afflicted with meibomian gland dysfunction, various forms of dry eye syndrome, abnormal lids due to chemical burns, Stevens-Johnson syndrome, ocular pemphigoid, etc.

C[C@H]1C[C@@H]2[C@H]([C@@H](O)C[C@@]3(C)[C@H]2CC[C@]3(O)C(=O)CO)[C@@]2(C)C=CC(=O)C=C12 [methyl prednisolone]
improvement of symptoms: 50%
